# Reference: patent US20130023504A1, “Modulation of Prostaglandin/Cyclooxygenase Metabolic Pathways” (HUNTER-FLEMING LIMITED, priority 2006, published 2013)
# “And” between values parts separate entries of the source, which are not always exact repeats. Identical values can stand only once.
# Key:
# Format in all cases: cell-based
# PC-12 cells = assay: Ischaemia (oxygen-glucose deprivation)-induced cell death in NGF-differentiated PC-12 cells, Trypan Blue exclusion; conditions: for decrease in cell death: vs. ischemia alone
# Experimental: PC-12 cells were maintained on flasks coated with Collagen typel in PC-12 media with the following composition; RPMI 1640 without L-glutamine with 2 mM L-glutamine, 10 mM HEPES, 1 mM Sodium Pyruvate, additional glucose to give a final concentration of 4.5 g/L (RPMI normally has 2 g/L), 10% heat inactivated horse serum, 5% foetal calf serum and 50 units of penicillin/streptomycin. Media was changed every 2 days.
# Confluent cultures of PC-12 cells were differentiated by culturing for 7 days in PC-12 medium without serum but with 50 ng/mlNGF (PC-12 NGF media). The cells were harvested, washed, counted and 1×10^5 PC-12 cells/well were plated overnight in a micro titre plate in glucose free PC-12 NGF medium. The medium was then changed to glucose-free PC-12 NGF medium containing the compounds to be tested and the plates left under normoxic conditions for 30 minutes.
# During this stage, the media and test substances for the anoxic exposure were placed in a chamber and de-oxygenated with 95% N2/5% CO2. The media in the plates was changed with the de-oxygenated media and the plates then placed in an anaerobic chamber gassed with 95% N2 5% CO2 for 10 minutes before being sealed and incubated at 37° C. overnight (18 hours). For normoxia controls, the cells were treated identically to ischemic treatments except that all incubations were in 5% CO2/95% air.
# Viability was determined using Trypan Blue exclusion.
# rat sensory neurones [1] = assay: Cisplatin-induced loss of neurite density in primary dorsal root ganglia sensory neurones (anti β-Tubulin); conditions: 10 ng/ml, cisplatin 3 μg/ml
# Experimental: (§1) Primary cultures of dissociated dorsal root ganglia sensory neurones were incubated with 3 μg/ml cisplatin, with and without 7β-OH EPIA for 48 hours and 72 hours and the following parameters were evaluated:
# neurite network density stained with an anti 8-Tubulin antibody
# (§2) Rat sensory neurones were prepared according to the method described by Hall et al 1997 [Hall et al. (J. Neurosci. 1997 Apr. 15; 17(8); 2775-84]. Briefly, a female rat (15 days gestation) was killed by cervical dislocation (Rats Wistar; Janvier, Le Genest-St-lsle, France) and the foetuses removed from the uterus. Their spinal cords with the dorsal root ganglia (DRG) were removed and placed in ice-cold medium of Leibovitz (L15, Fisher 11415-049) containing Penicillin 50 UI/ml-Streptomycin 50 μg/ml (PS, 1%) and bovine serum albuminutes (BSA 1%, Sigma A6003). The DRG were recovered and dissociated by trypsinisation for 20 minutes at 37° C. (trypsin EDTA 10×, 10%, Fisher 15400054) diluted in PBS without calcium and magnesium (Fisher 2007-03). The reaction was stopped by addition of Dulbecco modified Eagle medium (DMEM, Fisher 21969-035) containing DNase I grade II (0.1 mg/ml Roche diagnostic 104159) and foetal bovine serum (FBS 10%, Fisher 10270-098). The cell suspension was triturated with a 10 ml pipette and centrifuged at 350×g for 10 minutes at room temperature. The pellet of dissociated cells was then resuspended in defined culture medium.
# (§3) Viable cells were counted in a Neubauer cytometer using the trypan blue exclusion test (Sigma) and seeded at a density of 30 000 cells/well in 96 well-plates (Nunc). Wells were pre-coated with poly-L-lysine (10 μg/ml, Sigma P2636) in ultra pure sterile water (Merck Eurolab 60759.01).
# (§4) Cells were allowed to adhere for 2 h and maintained in a humidified incubator at 37° C. in 5% CO2/95% air atmosphere.
# (§5) After 5 days of culture, the culture medium was changed into a defined culture medium following the different conditions described below:
# (§6) Test compound 7β-OH EPIA (1 nM, 10 nM and 100 nM)+cisplatin (3 μg/ml)
# (§7) Reference compound NGF (10 ng/ml)+cisplatin (3 μg/ml)
# (§8) Six wells per condition were carried out to assess neuronal survival. After 48 hours and 72 hours of incubation, the neuronal cells were fixed for 5 minutes in an ethanol/acetic acid solution (95%/5%) at −20° C. and rinsed 3 times in PBS.
# (§9) Cell bodies of sensory neurones were labelled by monoclonal anti MAP-2 antibody (Sigma M4403) and the neurite of sensory neurones were labelled by monoclonal β-Tubulin antibody (Sigma T8660). These antibodies were diluted at 1:400 in incubation solution (PBS with 5% of FCS and 0.1% of saponin, Sigma S-7900). These antibodies specifically label neurone cell bodies and neuritis, respectively.
# (§10) After 2 hours of incubation, the cells were washed in PBS and incubated with Alexa Fluor 488 goat anti mouse IgG (Molecular Probes A11001) diluted at 1:300 in incubation solution to reveal the MAP-2 and the β-Tubulin antibodies. Cell nuclei were stained with a fluorescent marker (Hoechst staining solution, SIGMA H6024, 1 μg/ml in incubation solution during 1 hour).
# (§11) For each condition, 2 pictures per well (12 pictures per condition) were taken using In Cell Analyzer 1000 (Amersham Biosciences) controlled by the computer software In Cell Analyzer 1000 3.2. For the MAP-2 labelling, the magnification was ×10, for the β-Tubulin labelling, the magnification was ×20. For each labelling, all the images were taken in the same conditions.
# (§12) Analysis of the number of cell bodies labelled with anti-MAP-2 antibodies, and total length of neurites labelled with anti β-Tubulin antibodies, were carried out using In Cell Analyzer 1000 3.2.Workstation software. The results were expressed in percentage compared to the vehicle. The comparisons of each group were carried out using the unpaired T test.
# rat sensory neurones [2] = assay: Neurite growth of sensory neurones in primary culture (anti β-Tubulin, In Cell Analyzer)
# Experimental: Rat sensory neurones were prepared according to the method described by Hall et al. 1997 (Hall A K, Ai X, Hickman G E, MacPhedran S E, Nduaguba C O, Robertson C P. The generation of neuronal heterogeneity in a rat sensory ganglion. J. Neurosci. 1997 Apr. 15; 17(8):2775-84). Briefly, female rats (15 days gestation) were killed by cervical dislocation (Rats Wistar; Janvier, Le Genest-St-Isle, France) and the foetuses removed from the uterus. Their spinal cords with the dorsal root ganglia (DRG) were removed and placed in ice-cold medium of Leibovitz (L15, Fisher 11415-049) containing Penicillin 50 Ul/ml-Streptomycin 50 pg/ml (PS, 1%) and bovine serum albuminutes (BSA 1%, Sigma A6003). The DRG were recovered and dissociated by trypsinisation for 20 minutes at 37° C. (trypsin EDTA 10×, 10%, Fisher 15400054) diluted in PBS without calcium and magnesium (Fisher 2007-03). The reaction was stopped by addition of Dulbecco modified Eagle medium (DMEM, Fisher 21969-035) containing DNase I grade II (0.1 mg/ml Roche diagnostic 104159) and foetal bovine serum (FBS 10%, Fisher 10270-098). The cell suspension was triturated with a 10 ml pipette and centrifuged at 350×g for 10 minutes at room temperature. The pellet of dissociated cells was then resuspended in defined culture medium.
# Viable cells were counted in a Neubauer cytometer using the trypan blue exclusion test (Sigma) and seeded at a density of 25 000 cells/well in 96 well-plates (Nunc). Wells were pre-coated with poly-L-lysine (10 μg/ml, Sigma P2636) in ultra pure sterile water (Merck Eurolab 60759.01).
# Cells were allowed to adhere for 2 hours and maintained in a humidified incubator at 37° C. in 5% CO2/95% air atmosphere.
# The culture medium was changed into a defined culture medium after a 12 hours incubation period following the conditions described below:
# NGF 50 ng/ml and 10 ng/ml (in 0.1% DMSO)
# After 6 hours, 12 hours and 24 hours of incubation with 7β-OH EPIA, cells were fixed for 5 minutes in an ethanol/acetic acid solution (95%/5%) at −20° C. and rinsed 3 times in PBS.
# Motor neurones and sensory neurones were labelled by monoclonal anti β-Tubulin antibody (Sigma T8660) diluted at 1:400 in incubation solution (PBS with 5% of FCS and 0.1% of saponin, Sigma S-7900). This antibody specifically labels neurone cell bodies and neurites.
# After 2 hours of incubation, the cells were washed in PBS and incubated with Alexa Fluor 488 goat anti mouse IgG (Molecular Probes A11001) diluted at 1:300 in incubation solution to reveal the 8-Tubulin III antibodies.
# Analysis of the total length of neurones labelled with anti β-Tubulin antibodies (neurones) were carried out using In Cell Analyzer 1000 3.2.Workstation software.
# The results were expressed in percentage compared to the vehicle. Comparison of groups was carried out using the unpaired T test.
# rat sensory neurones [3] = assay: Cisplatin-induced neuronal cell death, number of cell bodies per field in dorsal root ganglia sensory neurones (anti MAP-2); conditions: 10 ng/ml, cisplatin 3 μg/ml
# Experimental: as §1
# neurone cell bodies stained with an anti MAP 2 antibody (microtubule associated protein 2)
# as §2, §3, §4, §5, §6, §7, §8, §9, §10, §11, §12
compound,measurement,setting,value
COc1ccc2c(c1)c(CC(=O)O)c(C)n2C(=O)c1ccc(Cl)cc1 [Indomethacin],antagonism of the protective effect of 7β-OH-EPIA,PC-12 cells; 10 μM indomethacin with 1 μM and 10 μM 7β-OH-EPIA,fully antagonised
same,decrease in cell death,PC-12 cells; 10 μM,no direct effect
same,decrease in cell death,PC-12 cells; 100 μM,29%
C[C@]12N[C@H](Cc3ccccc31)c1ccccc12 [MK801],decrease in cell death,PC-12 cells; 10 μM,62% and 42%
"NGF: Nerve Growth Factor, a specific growth factor for sensory neurones; reference compound",% Control without cisplatin (neurite length),rat sensory neurones [1]; 48 hours,117%
same,Mean neurite length,rat sensory neurones [1]; 48 hours,6362.44 μm
same,% Control without cisplatin (neurite length),rat sensory neurones [1]; 72 hours,113%
same,Mean neurite length,rat sensory neurones [1]; 72 hours,6000.30 μm
same,"Neurites length per field, % Vehicle","rat sensory neurones [2]; 10 ng/ml, 6 hours",191%
same,"Neurites length per field, Mean","rat sensory neurones [2]; 10 ng/ml, 6 hours",195.2 μm
same,"Neurites length per field, % Vehicle","rat sensory neurones [2]; 10 ng/ml, 12 hours",128%
same,"Neurites length per field, Mean","rat sensory neurones [2]; 10 ng/ml, 12 hours",381.3 μm
same,"Neurites length per field, % Vehicle","rat sensory neurones [2]; 10 ng/ml, 24 hours",371%
same,"Neurites length per field, Mean","rat sensory neurones [2]; 10 ng/ml, 24 hours",819.9 μm
same,"Neurites length per field, % Vehicle","rat sensory neurones [2]; 50 ng/ml, 6 hours",273%
same,"Neurites length per field, Mean","rat sensory neurones [2]; 50 ng/ml, 6 hours",279.1 μm
same,"Neurites length per field, % Vehicle","rat sensory neurones [2]; 50 ng/ml, 12 hours",216%
same,"Neurites length per field, Mean","rat sensory neurones [2]; 50 ng/ml, 12 hours",644.3 μm
same,"Neurites length per field, % Vehicle","rat sensory neurones [2]; 50 ng/ml, 24 hours",309%
same,"Neurites length per field, Mean","rat sensory neurones [2]; 50 ng/ml, 24 hours",682.1 μm
same,% Control without cisplatin (cell bodies),rat sensory neurones [3]; 48 hours,96%
same,"number of cell bodies per field, Average",rat sensory neurones [3]; 48 hours,58.33
same,% Control without cisplatin (cell bodies),rat sensory neurones [3]; 72 hours,1.2%
same,"number of cell bodies per field, Average",rat sensory neurones [3]; 72 hours,54.92
